In US10738026B2, “Isoquinoline derivatives and use thereof” (Purdue Pharma L.P., priority 2014, dated 2020):

Assays:
hNav1.7 = hNav1.7 (Homo sapiens (Human), UniProt Q15858); experiment: Electrophysiology (EP) assay, whole-cell patch clamp in hNav1.7 expressing HEK-293 cells; type: cell-based; conditions: hNav1.7 HEK-293 cells; affinity for the inactivated state of the channel; read-out: Nav1.7 Activity (μM) EP assay Ki
human Nav1.7 = human Nav1.7 (Homo sapiens (Human), UniProt Q15858); experiment: FLIPR or FLIPR TETRA sodium dye assay with KCl and test article pre-incubation (sodium mobilization); type: cell-based; conditions: recombinant human Nav1.7 in HEK293; veratridine and scorpion venom as agonists
Sequence of human Nav1.7 (Q15858 with tags, fused parts or gaps limits assumed): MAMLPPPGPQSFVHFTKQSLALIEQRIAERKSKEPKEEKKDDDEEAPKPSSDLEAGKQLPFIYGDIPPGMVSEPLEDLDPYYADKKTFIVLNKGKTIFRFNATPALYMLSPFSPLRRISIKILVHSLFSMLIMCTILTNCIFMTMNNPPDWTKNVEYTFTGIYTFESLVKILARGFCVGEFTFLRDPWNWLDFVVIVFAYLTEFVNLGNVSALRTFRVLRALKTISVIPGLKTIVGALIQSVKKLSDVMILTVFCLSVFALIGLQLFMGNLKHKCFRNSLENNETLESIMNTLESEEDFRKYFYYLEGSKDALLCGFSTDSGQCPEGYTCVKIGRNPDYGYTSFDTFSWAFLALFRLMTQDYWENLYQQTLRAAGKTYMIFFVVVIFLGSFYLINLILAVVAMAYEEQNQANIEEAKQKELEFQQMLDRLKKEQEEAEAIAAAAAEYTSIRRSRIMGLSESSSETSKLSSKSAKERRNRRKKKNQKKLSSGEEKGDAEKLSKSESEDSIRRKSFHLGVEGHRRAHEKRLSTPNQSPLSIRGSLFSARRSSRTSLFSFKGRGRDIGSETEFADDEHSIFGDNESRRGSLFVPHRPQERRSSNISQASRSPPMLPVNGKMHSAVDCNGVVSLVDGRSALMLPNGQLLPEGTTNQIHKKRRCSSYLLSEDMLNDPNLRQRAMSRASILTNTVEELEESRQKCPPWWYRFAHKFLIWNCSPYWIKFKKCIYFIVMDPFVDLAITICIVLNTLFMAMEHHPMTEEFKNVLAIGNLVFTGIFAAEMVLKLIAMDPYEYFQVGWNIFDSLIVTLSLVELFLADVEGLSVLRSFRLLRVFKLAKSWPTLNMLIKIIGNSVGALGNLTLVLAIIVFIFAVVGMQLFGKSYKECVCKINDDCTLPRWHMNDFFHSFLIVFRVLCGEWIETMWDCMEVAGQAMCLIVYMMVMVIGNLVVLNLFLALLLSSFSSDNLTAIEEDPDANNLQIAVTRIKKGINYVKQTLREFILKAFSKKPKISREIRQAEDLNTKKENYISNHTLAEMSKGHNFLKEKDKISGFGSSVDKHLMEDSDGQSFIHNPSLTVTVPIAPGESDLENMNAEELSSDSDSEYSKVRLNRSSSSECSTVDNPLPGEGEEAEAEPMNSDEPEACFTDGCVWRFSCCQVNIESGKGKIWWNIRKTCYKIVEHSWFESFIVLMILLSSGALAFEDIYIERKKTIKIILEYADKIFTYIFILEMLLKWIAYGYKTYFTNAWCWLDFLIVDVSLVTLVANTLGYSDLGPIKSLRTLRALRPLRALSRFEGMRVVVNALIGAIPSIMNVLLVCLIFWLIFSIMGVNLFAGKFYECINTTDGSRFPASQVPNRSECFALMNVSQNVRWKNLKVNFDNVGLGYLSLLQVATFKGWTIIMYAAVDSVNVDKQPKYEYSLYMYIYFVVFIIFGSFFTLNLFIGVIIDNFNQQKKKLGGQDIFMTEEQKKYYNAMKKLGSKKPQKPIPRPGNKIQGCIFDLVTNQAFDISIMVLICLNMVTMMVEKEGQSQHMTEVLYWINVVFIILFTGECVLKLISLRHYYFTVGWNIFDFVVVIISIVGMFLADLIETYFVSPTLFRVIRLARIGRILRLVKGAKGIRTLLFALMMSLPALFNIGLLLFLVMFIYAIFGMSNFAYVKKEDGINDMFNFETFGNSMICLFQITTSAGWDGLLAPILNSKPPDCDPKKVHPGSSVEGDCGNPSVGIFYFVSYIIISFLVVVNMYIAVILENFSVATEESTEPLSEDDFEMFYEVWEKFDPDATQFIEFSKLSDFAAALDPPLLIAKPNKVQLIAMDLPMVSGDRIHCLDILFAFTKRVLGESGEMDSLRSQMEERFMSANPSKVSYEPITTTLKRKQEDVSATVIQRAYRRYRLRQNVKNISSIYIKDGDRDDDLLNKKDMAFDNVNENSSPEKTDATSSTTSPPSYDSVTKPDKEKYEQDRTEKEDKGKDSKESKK

Sequence of hNav1.7 (Q15858 other isoform, or with tags, fused parts or gaps): as the sequence (Q15858 with tags, fused parts or gaps limits assumed) above

SMILES | Ki (hNav1.7) | IC50 (human Nav1.7)
O=S(=O)(Nc1ncns1)c1cccc(N2CCc3c(cccc3-c3ccc(C(F)(F)F)cc3)C2)n1 [Compound 29, N-(1,2,4-thiadiazol-5-yl)-6-(5-(4-(trifluoromethyl)phenyl)-3,4-dihydroisoquinolin-2(1H)-yl)pyridine-2-sulfonamide] | 0.535 ± 0.145 µM | 0.291 ± 0.019 µM
NC(=O)c1cc(N2CCc3c(cccc3-c3ccc(C(F)(F)F)cc3)C2)cc([C@H](O)CO)n1 [Compound 35, (S)-6-(1,2-dihydroxyethyl)-4-(5-(4-(trifluoromethyl)phenyl)-3,4-dihydroisoquinolin-2(1H)-yl)picolinamide] | 0.232 ± 0.065 µM | 0.502 ± 0.031 µM
C[C@H](Nc1cc(C(N)=O)nc(N2CCc3c(cccc3C3CCCCC3)C2)n1)C(N)=O [Compound 31, (S)-6-((1-amino-1-oxopropan-2-yl)amino)-2-(5-cyclohexyl-3,4-dihydroisoquinolin-2(1H)-yl)pyrimidine-4-carboxamide] | – | 2.2 ± 0.898 µM
NC(=O)c1cc(N2CCc3c(cccc3-c3ccc(C(F)(F)F)cc3)C2)cc([C@@H](O)CO)n1 [Compound 36, (R)-6-(1,2-dihydroxyethyl)-4-(5-(4-(trifluoromethyl)phenyl)-3,4-dihydro-isoquinolin-2(1H)-yl)picolinamide] | 0.257 ± 0.046 µM | 1.54 ± 0.229 µM
NC(=O)c1cccc(N2CCc3c(cccc3-c3ccc(C(F)(F)F)cc3)C2)n1 [Compound 25, 6-(5-(4-(trifluoromethyl)phenyl)-3,4-dihydroisoquinolin-2(1H)-yl)picolinamide] | – | 0.987 ± 0.072 µM
C[C@H](Nc1cc(C(N)=O)nc(N2CCc3c(cccc3-c3ccc(C(F)(F)F)cc3)C2)n1)C(N)=O [Compound 22, (S)-6-((1-amino-1-oxopropan-2-yl)amino)-2-(5-(4-(trifluoromethyl)phenyl)-3,4-dihydroisoquinolin-2(1H)-yl)pyrimidine-4-carboxamide] | 0.317 ± 0.079 µM | 0.428 ± 0.069 µM
C[C@H](Nc1cc(C(N)=O)nc(N2CCc3c(cccc3C3=CCCCC3)C2)n1)C(N)=O [Compound 28, (S)-6-((1-amino-1-oxopropan-2-yl)amino)-2-(5-(cyclohex-1-en-1-yl)-3,4-dihydroisoquinolin-2(1H)-yl)pyrimidine-4-carboxamide] | – | 2.84 ± 0.112 µM
C[C@H](Nc1cc(C(N)=O)nc(N2CCc3c(cccc3-c3ccccc3C(F)(F)F)C2)n1)C(N)=O [Compound 24, (S)-6-((1-amino-1-oxopropan-2-yl)amino)-2-(5-(2-(trifluoromethyl)-phenyl)-3,4-dihydroisoquinolin-2(1H)-yl)pyrimidine-4-carboxamide] | – | 2.35 ± 0.125 µM
C[C@H](Nc1cc(C(N)=O)nc(N2CCc3c(cccc3-c3cccc(C(F)(F)F)c3)C2)n1)C(N)=O [Compound 27, (S)-6-((1-amino-1-oxopropan-2-yl)amino)-2-(5-(3-(trifluoromethyl)phenyl)-3,4-dihydroisoquinolin-2(1H)-yl)pyrimidine-4-carboxamide] | 0.24 ± 0.041 µM | 1.52 ± 0.122 µM
C[C@H](Nc1cc(C(N)=O)nc(N2CCc3c(cccc3-c3ccc(C(F)(F)F)cn3)C2)n1)C(N)=O [Compound 23, (S)-6-((1-amino-1-oxopropan-2-yl)amino)-2-(5-(5-(trifluoromethyl)-pyridin-2-yl)-3,4-dihydroisoquinolin-2(1H)-yl)pyrimidine-4-carboxamide] | – | > 20 µM
NC(=O)[C@@H](O)[C@H](O)c1cccc(N2CCc3c(cccc3-c3ccc(C(F)(F)F)cc3)C2)n1 [Compound 26, (2S,3R)-2,3-dihydroxy-3-(6-(5-(4-(trifluoromethyl)phenyl)-3,4-dihydroisoquinolin-2(1H)-yl)pyridin-2-yl)propanamide] | 0.051 ± 0.014 µM | 0.251 ± 0.017 µM
